These results are taken from patent publication US10759721B2, “Deuterated CFTR potentiators” (Vertex Pharmaceuticals (Europe) Limited, priority 2015, dated 2020).

What is called half-life is the time needed for the level to fall by half in the phase considered.

Like-named read-outs stand apart in the source and are kept apart here.

One data set concerns the target T1, CYP3A4 (Homo sapiens, UniProt P08684).
T1 construct: purchased BD Biosciences
The experiment in a line: Metabolic stability in human CYP3A4 Supersomes. Format: in vitro ADME. Conditions: recombinant human CYP3A4 Supersomes, pH 7.4, human CYP3A4 Supersomes, read-out: calculated average half-life. How it is done: (§1) Stock solutions (7.5 mM) of Compound 100 and Compound A were prepared in DMSO. The 7.5 mM stock solutions were diluted to 12.5 μM in acetonitrile (ACN). The human CYP3A4 Supersomes™ (2000 pmol/mL, purchased from BD Biosciences™) were diluted to 62.5 pmol/mL in 0.1 M potassium phosphate buffer, pH 7.4, containing 3 mM MgCl2. The diluted supersomes were added to wells of a 96-well polypropylene plate in triplicate. A 10 μL aliquot of the 12.5 μM test compound was added to the supersomes and the mixture was pre-warmed for 10 minutes. Reactions were initiated by addition of pre-warmed NADPH solution. The final reaction volume was 0.5 mL and contained 50 pmol/mL CYP3A4 Supersomes™, 0.25 μM test compound, and 2 mM NADPH in 0.1 M potassium phosphate buffer, pH 7.4, and 3 mM MgCl2. The reaction mixtures were incubated at 37° C., and 50 μL aliquots were removed at 0, 3, 7, 10, 20 and 30 minutes and added to 96-well plates which contained 125 μL of ice-cold ACN with internal standard to stop the reactions. The plates were stored at 4° C. for 20 minutes after which 75 μL of water was added to the wells of the plate before centrifugation to pellet precipitated proteins. Supernatants were transferred to another 96-well plate and analyzed for amounts of parent remaining by LC-MS/MS using an AB Sciex QTrap 5500 mass spectrometer.
(§2) The in vitro half-lives (t1/2 values) for test compounds were calculated from the slopes of the linear regression of LN (% parent remaining) vs incubation time relationship: in vitro t1/2=0.693/k, where k=−[slope of linear regression of LN (% parent remaining) vs incubation time].
as §1, with “Compound 120” for “Compound 100”, “Compound B” for “Compound A”

For a further data set, the target named is T2, human CYP3A4 Supersomes (Homo sapiens, UniProt P08684).
T2 construct: purchased BD Biosciences
Description: Metabolic stability in human CYP3A4 Supersomes. Format: in vitro ADME. Conditions: for average increase in t1/2 / apparent intrinsic clearance ratio: human CYP3A4 Supersomes; for Clint, app rCYP: human CYP3A4 Supersomes 50 pmol/mL, 0.25 μM test compound, CL int = (0.693/in vitro t1/2)(mL incubation volume/pmol P450). As for the experimental part:
as §1, §2
as §1, with “Compound 120” for “Compound 100”, “Compound B” for “Compound A”

The subject of data set [1] is patients with cystic fibrosis carrying at least one copy of the G551D-CFTR mutation. To be noted: phase III trials; cited from earlier work.

T1 sequence (P08684 whole entry): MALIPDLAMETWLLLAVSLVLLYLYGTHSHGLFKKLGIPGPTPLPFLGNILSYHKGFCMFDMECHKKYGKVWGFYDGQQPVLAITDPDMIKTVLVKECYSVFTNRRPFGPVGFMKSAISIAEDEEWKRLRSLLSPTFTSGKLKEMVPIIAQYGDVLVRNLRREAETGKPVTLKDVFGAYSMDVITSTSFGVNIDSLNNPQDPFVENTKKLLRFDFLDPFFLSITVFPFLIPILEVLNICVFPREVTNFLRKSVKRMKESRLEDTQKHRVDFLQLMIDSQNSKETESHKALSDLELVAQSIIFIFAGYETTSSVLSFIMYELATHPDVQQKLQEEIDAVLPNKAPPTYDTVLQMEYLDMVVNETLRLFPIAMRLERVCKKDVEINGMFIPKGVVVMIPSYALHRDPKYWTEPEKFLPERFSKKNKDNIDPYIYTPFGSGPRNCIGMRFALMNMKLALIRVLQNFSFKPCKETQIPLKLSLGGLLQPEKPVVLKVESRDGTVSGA
T2 sequence (P08684 whole entry): as above

For `[2H]C([2H])([2H])C(c1cc(C(F)(F)F)c(NC(=O)c2c[nH]c3ccccc3c2=O)cc1O)(C([2H])([2H])[2H])C([2H])([2H])[2H]` [Compound 120, N-(5-hydroxy-4-(2-(methyl-d3)propan-2-yl-1,1,1,3,3,3-d6)-2-(trifluoromethyl)phenyl)-4-oxo-1,4-dihydroquinoline-3-carboxamide], the half-life at 0.25 μM at CYP3A4 (Example 4) is 20.6 min. Further, the “average increase in t1/2” value on human CYP3A4 Supersomes (Compound 120 relative to Compound B) is 42%. The “Clint, app rCYP” value on human CYP3A4 Supersomes (Table 3) amounted to 0.34 ± 0.00 µL/min/pmol. Besides, the apparent intrinsic clearance ratio on human CYP3A4 Supersomes (ratio 120/B) stood at 0.71. On human CYP3A4 Supersomes (relative to Compound B), the “stability in Human CYP3A4 Supersomes relative to Compound B” value is “more stable”.
For the compound `CC(C)(C)c1cc(C(F)(F)F)c(NC(=O)c2c[nH]c3ccccc3c2=O)cc1O` [Compound B, N-(4-(tert-butyl)-5-hydroxy-2-(trifluoromethyl)phenyl)-4-oxo-1,4-dihydroquinoline-3-carboxamide, reference compound], the half-life at 0.25 μM at CYP3A4 (Example 4) is 14.5 min. Moreover, on human CYP3A4 Supersomes (Table 3), the “Clint, app rCYP” value stood at 0.48 ± 0.06 µL/min/pmol.
On to `CC(C)(C)c1cc(C(C)(C)C)c(NC(=O)c2c[nH]c3ccccc3c2=O)cc1O` [VX-770, N-(2,4-di-tert-butyl-5-hydroxyphenyl)-4-oxo-1,4-dihydroquinoline-3-carboxamide], for which the “improvement in lung function and other key indicators of the disease (sweat chloride levels, likelihood of pulmonary exacerbations, body weight)” value in data set [1] was “marked levels of improvement”.
As for `[2H]C([2H])([2H])C(c1ccc(NC(=O)c2c[nH]c3ccccc3c2=O)cc1O)(C([2H])([2H])[2H])C([2H])([2H])[2H]` [Compound 100, N-(3-Hydroxy-4-(2-(methyl-d3)propan-2-yl-1,1,1,3,3,3-d6)phenyl)-4-oxo-1,4-dihydroquinoline-3-carboxamide], on CYP3A4 (text of Example 3), the half-life at 0.25 μM is 26.5 min. For the same compound, on human CYP3A4 Supersomes (Compound 100 relative to Compound A), the “average increase in t1/2” value is recorded as 75%. Further, the “Clint, app rCYP” value on human CYP3A4 Supersomes (Table 2) is 0.26 ± 0.00 µL/min/pmol. The “apparent intrinsic clearance ratio” value on human CYP3A4 Supersomes (ratio 100/A) is recorded as 0.57. The “stability in Human CYP3A4 Supersomes relative to Compound A” value at human CYP3A4 Supersomes (relative to Compound A) is “more stable”.
Turning to `CC(C)(C)c1ccc(NC(=O)c2c[nH]c3ccccc3c2=O)cc1O` [Compound A, N-(4-(tert-butyl)-3-hydroxyphenyl)-4-oxo-1,4-dihydroquinoline-3-carboxamide, reference compound], the half-life at 0.25 μM at CYP3A4 (text of Example 3) is 15.1 min. Moreover, on human CYP3A4 Supersomes (Table 2), the “Clint, app rCYP” value worked out at 0.46 ± 0.02 µL/min/pmol.
